The test system of data set [1] is HGC-27. The data set is described as follows: Induction of apoptosis in human HGC-27 cells assessed as necrotic cells at 0.5 uM incubated for 48 hrs by annexin V FITC/propidium iodide staining based flow cytometry (reference value: 1.24 %). Format: functional. Background: Flow cytometry measures light scatter and fluorescence of single cells or particles in a stream.

Data set [2] has as its system MGC-803. In words: Induction of cell cycle arrest in human MGC-803 cells assessed as reduction in accumulation of cells at G2/M phase at 2.5 to 10 uM incubated for 24 hrs by PI staining based flow cytometry analysis. Format: functional. Particulars: dose 2.5-10 µM.
In data set [3] the test system is HGC-27. The data set is described as follows: Induction of apoptosis in human HGC-27 cells assessed as upregulation in cleaved PARP expression at 0.5 to 8 uM incubated for 48 hrs by Western blot analysis. Particulars: dose 0.5-8 µM. In kind it is functional, cell-based.
In data set [4] the test system is MGC-803. The data set is described as follows: Induction of apoptosis in human MGC-803 cells assessed as early apoptotic cells at 2.5 uM incubated for 48 hrs by annexin V FITC/propidium iodide staining based flow cytometry (reference value: 0.42 %). In kind it is functional.
The test system of data set [5] is HGC-27. In words: Induction of apoptosis in human HGC-27 cells assessed as necrotic cells at 8 uM incubated for 48 hrs by annexin V FITC/propidium iodide staining based flow cytometry (reference value: 1.24 %). In kind it is functional.
The test system of data set [6] is HGC-27. In words: Induction of apoptosis in human HGC-27 cells assessed as upregulation in cleaved caspase-9 expression at 0.5 to 8 uM incubated for 48 hrs by Western blot analysis. The conditions noted are these: dose 0.5-8 µM. In kind it is functional, cell-based. On the technique in general: In western blotting, separated proteins are transferred to a membrane and probed.

The test system of data set [7] is HGC-27. In words: Induction of cell cycle arrest in human HGC-27 cells assessed as upregulation of p21 expression at 0.5 to 8 uM incubated for 48 hrs by Western blot analysis. In kind it is functional, cell-based. The conditions noted are these: dose 0.5-8 µM.
For data set [8], the system named is MGC-803. In words: Induction of cell cycle arrest in human MGC-803 cells assessed as reduction in accumulation of cells at G0/G1 phase at 2.5 to 10 uM incubated for 24 hrs by PI staining based flow cytometry analysis. The conditions noted are these: dose 2.5-10 µM. In kind it is functional.
The subject of data set [9] is MGC-803. The data set is described as follows: Induction of apoptosis in human MGC-803 cells assessed as necrotic cells at 2.5 uM incubated for 48 hrs by annexin V FITC/propidium iodide staining based flow cytometry (reference value: 1.06 %). In kind it is functional.
In data set [10] the test system is MGC-803. In words: Induction of apoptosis in human MGC-803 cells assessed as viable cells at 2.5 uM incubated for 48 hrs by annexin V FITC/propidium iodide staining based flow cytometry (reference value: 94.4 %). In kind it is functional. Particulars: read-out: Activity.
In data set [11] the test system is HGC-27. In words: Induction of apoptosis in human HGC-27 cells assessed as late apoptotic cells at 0.1 uM incubated for 48 hrs by annexin V FITC/propidium iodide staining based flow cytometry (reference value: 5.14 %). In kind it is functional.
Data set [12] concerns HGC-27. The data set is described as follows: In vivo induction of apoptosis in human HGC-27 cells xenografted in BALB/c mouse assessed as increase in cleaved caspase-9 expression at 75 to 150 mg/kg , po bid administered for 19 days and measured by immunohistochemical analysis. In kind it is functional, organism-based. Particulars: dose 75-150 mg/kg, time 19.0 day. (A xenograft is tissue or cells of one species grown in another, often human tumour cells in immunodeficient mice.)

Data set [13] in a line: Toxicity in BALB/c mouse xenografted with human HGC-27 cells assessed as red blood cell distribution width at 75 mg/kg, po bid for 19 days. Format: organism-based. Particulars: in vivo, 456 h, time 19 day.
Data set [14] in a line: Toxicity in BALB/c mouse xenografted with human HGC-27 cells assessed as lymphocyte level at 150 mg/kg, po bid for 19 days. In kind it is organism-based. The conditions noted are these: in vivo, 456 h, time 19 day.
Data set [15] concerns MGC-803. The data set is described as follows: Induction of cell cycle arrest in human MGC-803 cells assessed as reduction in accumulation of cells at G0/G1 phase at 5 to 20 uM incubated for 24 hrs by PI staining based flow cytometry analysis. In kind it is functional. The conditions noted are these: dose 5-20 µM.
In data set [16] the test system is HGC-27. In words: Induction of apoptosis in human HGC-27 cells assessed as late apoptotic cells at 1.6 uM incubated for 48 hrs by annexin V FITC/propidium iodide staining based flow cytometry (reference value: 5.14 %). Format: functional.
The nature of data set [17]: Toxicity in BALB/c mouse xenografted with human HGC-27 cells assessed as mean platelet volume at 150 mg/kg, po bid for 19 days. Format: organism-based. Particulars: in vivo, 456 h, time 19 day.
In data set [18] the test system is MGC-803. The data set is described as follows: Induction of apoptosis in human MGC-803 cells assessed as necrotic cells at 20 uM incubated for 48 hrs by annexin V FITC/propidium iodide staining based flow cytometry (reference value: 1.06 %). In kind it is functional.
Data set [19] in a line: Toxicity in BALB/c mouse xenografted with human HGC-27 cells assessed as hematocrit level at 75 mg/kg, po bid for 19 days. Format: organism-based. The conditions noted are these: in vivo, 456 h, time 19 day.
Data set [20] can be described thus: Toxicity in BALB/c mouse xenografted with human HGC-27 cells assessed as lymphocyte level at 75 mg/kg, po bid for 19 days. The conditions noted are these: in vivo, 456 h, time 19 day. Format: organism-based.
The test system of data set [21] is MGC-803. In words: Induction of apoptosis in human MGC-803 cells assessed as early apoptotic cells at 20 uM incubated for 48 hrs by annexin V FITC/propidium iodide staining based flow cytometry (reference value: 0.42 %). Format: functional.
In data set [22] the test system is MGC-803. In words: Induction of cell cycle arrest in human MGC-803 cells assessed as reduction in accumulation of cells at G2/M phase at 5 to 20 uM incubated for 24 hrs by PI staining based flow cytometry analysis. In kind it is functional. Particulars: dose 5-20 µM.
Data set [23] deals with HGC-27. In words: Antitumor activity against human HGC-27 cells xenografted in BALB/c mouse assessed as tumor growth inhibition at 75 mg/kg, po bid administered for 19 days. Format: functional. Particulars: HGC-27, 456 h, time 19 day, read-out: TGI.
For data set [24], the system named is HGC-27. The data set is described as follows: Induction of apoptosis in human HGC-27 cells assessed as necrotic cells at 1.6 uM incubated for 48 hrs by annexin V FITC/propidium iodide staining based flow cytometry (reference value: 1.24 %). In kind it is functional.
The test system of a further data set is BGC-823. The data set is described as follows: cells. Format: functional, cell-based. Particulars: Homo sapiens, BGC-823, 72 h.
The nature of a further data set: in vitro. Particulars: human, WI-38 cells.
In data set [25] the test system is HGC-27. In words: In vivo induction of cell cycle arrest in human HGC-27 cells xenografted in BALB/c mouse assessed as increase in p27 expression at 75 to 150 mg/kg, po bid administered for 19 days and measured by immunohistochemical analysis. In kind it is functional, organism-based. Particulars: dose 75-150 mg/kg, time 19.0 day.
Data set [26] relates to HGC-27. In words: Induction of apoptosis in human HGC-27 cells assessed as upregulation in Bax expression at 0.1 to 1.6 uM incubated for 48 hrs by Western blot analysis. In kind it is functional, cell-based. Particulars: dose 0.1-1.6 µM.
Data set [27] deals with HGC-27. The data set is described as follows: Induction of apoptosis in human HGC-27 cells assessed as early apoptotic cells at 1.6 uM incubated for 48 hrs by annexin V FITC/propidium iodide staining based flow cytometry (reference value: 0.66 %). In kind it is functional.
The nature of data set [28]: Toxicity in BALB/c mouse xenografted with human HGC-27 cells assessed as granulocyte level at 75 mg/kg, po bid for 19 days. In kind it is organism-based. Particulars: in vivo, 456 h, time 19 day.
A short description of data set [29]: Acute toxicity in Kunming mouse assessed as effect on kidney pathology at 1000 mg/kg, po measured after 14 days. Format: organism-based. Particulars: in vivo, 336 h, time 14 day.
For data set [30], the system named is HGC-27. In words: In vivo induction of apoptosis in human HGC-27 cells xenografted in BALB/c mouse assessed as increase in cleaved caspase-3 expression at 75 to 150 mg/kg , po bid administered for 19 days and measured by immunohistochemical analysis. Format: functional, organism-based. Particulars: dose 75-150 mg/kg, time 19.0 day.
Data set [31] concerns HGC-27. In words: Antitumor activity against human HGC-27 cells xenografted in BALB/c mouse assessed as tumor growth inhibition at 150 mg/kg, po bid administered for 19 days. In kind it is functional. The conditions noted are these: HGC-27, 456 h, time 19 day, read-out: TGI.
The nature of data set [32]: Toxicity in BALB/c mouse xenografted with human HGC-27 cells assessed as mean platelet volume at 75 mg/kg, po bid for 19 days. The conditions noted are these: in vivo, 456 h, time 19 day. Format: organism-based.

This note sets out measurements from ChEMBL document CHEMBL5143508, “Design, synthesis and biological evaluation of novel o-aminobenzamide derivatives as potential anti-gastric cancer agents in vitro and in vivo” (Eur J Med Chem, 2022).

“And” between values parts separate entries of the source, which are not always exact repeats. Equal values may be shown once. The source made the active and inactive calls. The calls are words filed in the database; no cut-off is given here.

Description for BGC-823: Cytotoxicity against human BGC-823 cells assessed as inhibition of cell growth incubated for 72 hrs by MTT assay
Description for in vitro: Cytotoxicity against human WI-38 cells assessed as inhibition of cell growth incubated for 72 hrs by MTT assay

As to `O=C(NCc1ccc(NC(=O)c2ccccc2N2CCCC2)cc1)OCc1cccnc1`, the Activity in the data set with HGC-27 [1] came out at 2.55%; in the data set with MGC-803 [4], 0.85%; in the data set with HGC-27 [5] it was 11.1%; in the data set on MGC-803 [9], 4.32%. Besides, the outcome with MGC-803 [2], in the data set on HGC-27 [3], in the data set on HGC-27 [6], in the data set on HGC-27 [7] and in the data set with MGC-803 [8] was Active. For the same compound, in the data set with MGC-803 [10], the viability at 2.5 µM is 80.3%.
As for `O=C(NCc1ccc(NC(=O)c2cc(F)ccc2N2CCCC2)cc1)OCc1cccnc1`, the Activity in the data set with HGC-27 [11] is 14.2%; in data set [13] it was 24.4%; in [14], 5.77 10^9/L and 7.2%; in the data set with HGC-27 [16], 69.4%; in [17] it was 6.28 fL; in the data set on MGC-803 [18] it was 2.74%. The Activity in [19] was 58.3%; in data set [20] it was 5.03 10^9/L and 6.57%; with MGC-803 [21], 16.8%; in the data set on HGC-27 [24], 16.9%; with HGC-27 [27], 0.31%; in data set [28], 91.4%. The Activity result in [29] is listed as “Non-Toxic”; in data set [32] it was 5.6 fL. Also, the outcome in the data set on HGC-27 [12], with MGC-803 [15], in the data set on MGC-803 [22], in the data set on HGC-27 [25], with HGC-27 [26] and in the data set with HGC-27 [30] was Active. The inhibition in vivo at 75 mg/kg in the data set with HGC-27 [23] turned out to be 52.4%. Further, in the data set on BGC-823, half-maximal inhibition (IC50) was put at 14.8 µM. The IC50 (as a rule, the concentration that inhibits the measured activity by half) at 72 h in “in vitro” is above 100 µM. For the same compound, the inhibition in vivo at 150 mg/kg in the data set with HGC-27 [31] is 68.9%.
